Experimental data as given in patent US6235771A, “Anilide derivative, production and use thereof” (Takeda Chemical Industries, Ltd., priority 1998, dated 2001).

Biological target: T1, human CCR5 (Homo sapiens, UniProt P51681)
T1 construct: expressed in transfected cells; host or cells: CHO-K1 cells, electroporated with plasmid pCKR5 (pcDNA3.1 backbone), geneticin-selected (CHO/CCR5)
Assay: Inhibition of [125I]-RANTES binding to human CCR5 in CHO/CCR5 cells (CCR5 antagonistic activity)
Settings: Test Compound 1 μM, 100 pM [125I]-RANTES, room temperature, 40 minutes, read-out: Inhibition Rate (CCR5 binding)
Experimental: Cloning of CCR5 gene was carried out by PCR (polymerase chain reaction) from human spleen cDNA. With using 0.5 ng of spleen cDNA (Toyobo, QUICK-Clone cDNA) as template, PCR was performed in DNA Thermal Cycler 480 (Perkin-Elmer) (reaction conditions: 30 cycles of 95° C. for 1 minute, 60° C. for 1 minute, and 75° C. for 5 minutes) by adding primer set, 5'-[…]-3' (25 pmol) and 5'-[…]-3' (25 pmol), which were designed referring to nucleotide sequence of CCR5 gene reported by Samson et al. (Biochemistry, 35(11), 3362-3367 (1996)) and by using TaKaRa EX Taq (TakaraShuzo). The resultant PCR product was subjected to agarose gel. electrophoresis to collect about 1.0 kb DNA fragment, which was subjected to Original TA Cloning Kit (Funakoshi) to carry out cloning of CCR5 gene.
The plasmid obtained in the above (1) was digested with restriction enzymes XbaI (Takara Shuzo) and BamHI (Takara Shuzo) and subjected to agarose gel electrophoresis to collect about 1.0 kb DNA fragment. The DNA fragment was mixed with plasmid pcDNA3.1 (Funakoshi) for expression in animal cells, said plasmid being digested with XbaI and BamHI, and they were ligated with DNA Ligation Kit Ver.2 (Takara Shuzo). The resulting plasmid was subjected to transformation of competent cell of E. coli JM109 (Takara Shuzo) to obtain plasmid pCKR5.
CHO-K1 cells were grown in 750 ml of tissue culture flask (Becton Dickinson) using Ham's F12 medium (Nihon Pharmaceutical) containing 10% fetal calf serum (Life Tech Oriental) and took off with 0.5 g/L trypsin-0.2 g/L EDTA (Life Tech Oriental). The cells were washed with PBS (Life Tech Oriental), centrifuged (1000 rpm, 5 minutes), and suspended in PBS. With using Gene Pulser (Bio-Rad Laboratories), DNA was introduced into the cells under the conditions shown below. That is, to the cuvette of 0.4 cm gap were added 8×10^6 cells and 10 μg of plasmid pCKR5 for expression of human CCR5, and electroporation was carried out under 0.25 kV of voltage and 960 μF of capacitance. The cells were transferred into Ham's F12 medium (Nihon Pharmaceutical) containing 10% fetal calf serum, and cultivated for 24 hours. The cells were again took off and centrifuged, and suspended in Ham's F12 medium (Nihon Pharmaceutical) containing 10% fetal calf serum and 500 μg/ml of geneticin (Life Tech Oriental). The suspension was diluted to give 10^4 cells/ml of the suspension, which was inoculated on 96 well plate (Becton Dickinson) to give geneticin resistant cells. The resulting geneticin resistant cells were cultivated in 96 well plate (Becton Dickinson), and cells expressing CCR5 were selected from the geneticin resistant cells. That is, in assay buffer (Ham's F12 medium containing 0.5% BSA and 20 mM HEPES (Wako Pure Chemical, pH7.2) to which was added 200 pM of [^125 I]-RANTES (Amersham) as ligand, binding reaction was carried out at room temperature for 40 minutes, and the buffer was washed with cooled PBS. To the buffer was added 50 μl/well of 1M NaOH, and the mixture was stirred. Radioactivity was determined with γ-counter to select CHO/CCR5 cells which specifically bind to the ligand.
The CHO/CCR5 were inoculated on 96 well microplate (5×10^4 cells/well) and cultivated for 24 hours. The medium was removed by means of suction, and to each well was added assay buffer containing Test Compound (1 μM) and then 100 pM of [^125 I]-RANTES (Amersham) as ligand. Binding assay was carried out at room temperature for 40 minutes, and assay buffer was removed by means of suction. Each well was washed twice with cooled PBS, and 200 μl of Microscint-20 (Packard Instrument, Inc.) was added to each well. Radio-activity was determined with Top-Count Micro Scintillation Counter (Packard Instrument, Inc.).
According to the method described above, inhibition rate of Test Compound (whose number is referred to in the following Examples) to CCR5 binding.

T1 sequence (P51681 whole entry): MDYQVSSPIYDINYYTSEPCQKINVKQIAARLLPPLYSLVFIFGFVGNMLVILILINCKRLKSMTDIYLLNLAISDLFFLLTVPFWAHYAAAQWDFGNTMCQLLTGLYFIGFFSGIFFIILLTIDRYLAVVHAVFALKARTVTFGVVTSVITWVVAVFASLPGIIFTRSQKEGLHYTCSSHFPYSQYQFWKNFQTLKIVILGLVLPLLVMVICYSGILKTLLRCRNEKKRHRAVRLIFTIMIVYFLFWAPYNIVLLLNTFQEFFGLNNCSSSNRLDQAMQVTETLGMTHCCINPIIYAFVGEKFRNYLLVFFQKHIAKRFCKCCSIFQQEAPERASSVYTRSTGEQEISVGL

Question: How did the inhibition at 1 µM turn out when `CCOc1ccc(-c2ccc3c(c2)C=C(C(=O)Nc2ccc(CN(C)C4CCOCC4)cc2)CCS3(=O)=O)cc1` [Compound 4, 7-(4-ethoxyphenyl)-N-[4-[N-methyl-N-(tetrahydropyran-4-yl)aminomethyl]phenyl]-1,1-dioxo-2,3-dihydro-1-benzothiepine-4-carboxamide] was run?
Answer: 91%

Question: With `CCCc1ccc(-c2ccc3c(c2)C=C(C(=O)Nc2ccc(CN(C)C4CCOCC4)cc2)CCS3(=O)=O)cc1` [Compound 27, N-[4-[N-methyl-N-(tetrahydropyran-4-yl)aminomethyl]phenyl]-7-(4-propylphenyl)-1,1-dioxo-2,3-dihydro-1-benzothiepine-4-carboxamide] as the compound, how does the inhibition at 1 µM read?
Answer: 100%

Question: For `CCSc1ccc(-c2ccc3c(c2)C=C(C(=O)Nc2ccc(CN(C)C4CCOCC4)cc2)CCS3(=O)=O)cc1` [Compound 44, 7-[(4-ethylthio)phenyl]-N-[4-[N-methyl-N-(tetrahydropyran-4-yl)aminomethyl]phenyl]-1,1-dioxo-2,3-dihydro-1-benzothiepine-4-carboxamide], which inhibition at 1 µM is on record?
Answer: 96%

Question: Which inhibition at 1 µM does the source give for `CCN(CC)c1ccc(-c2ccc3c(c2)C=C(C(=O)Nc2ccc(CN(C)C4CCOCC4)cc2)CCS3(=O)=O)cc1` [Compound 54, 7-(4-diethylaminophenyl)-N-[4-[[N-methyl-N-(tetrahydropyran-4-yl)amino]methyl]phenyl]-1,1-dioxo-2,3-dihydro-1-benzothiepine-4-carboxamide] here?
Answer: 99%

Question: Which inhibition at 1 µM does the source give for `CCCOCCOc1ccc(-c2ccc3c(c2)C=C(C(=O)Nc2ccc(CN(C)C4CCOCC4)cc2)CCS3(=O)=O)cc1OCC` [Compound 73, 7-[3-ethoxy-4-(2-propoxyethoxy)phenyl]-N-[4-[[N-methyl-N-(tetrahydropyran-4-yl)amino]methyl]phenyl]-1,1-dioxo-2,3-dihydro-1-benzothiepine-4-carboxamide] here?
Answer: 94%

Question: For `CCCOCCOc1ccc(-c2ccc3c(c2)C=C(C(=O)Nc2ccc(CN(C)C4CCOCC4)cc2)CCS3(=O)=O)cc1Cl` [Compound 74, 7-[3-chloro-4-(2-propoxyethoxy)phenyl]-N-[4-[[N-methyl-N-(tetrahydropyran-4-yl)amino]methyl]phenyl]-1,1-dioxo-2,3-dihydro-1-benzothiepine-4-carboxamide], which inhibition at 1 µM is on record?
Answer: 94%

Question: With `CCCOCCOc1ccc(-c2ccc3c(c2)C=C(C(=O)Nc2ccc(CN(C)C4CCOCC4)cc2)CCS3(=O)=O)cc1C` [Compound 75, 7-[3-methyl-4-(2-propoxyethoxy)phenyl]-N-[4-[[N-methyl-N-(tetrahydropyran-4-yl)amino]methyl]phenyl]-1,1-dioxo-2,3-dihydro-1-benzothiepine-4-carboxamide] as the compound, how does the inhibition at 1 µM read?
Answer: 95%

Question: `CCOCCOc1ccc(-c2ccc3c(c2)C=C(C(=O)Nc2ccc(CN(C)C4CCOCC4)cc2)CCS3(=O)=O)cc1` [Compound 84, 7-[4-(2-ethoxyethoxy)phenyl]-N-[4-[[N-methyl-N-(tetrahydropyran-4-yl)amino]methyl]phenyl]-1,1-dioxo-2,3-dihydro-1-benzothiepine-4-carboxamide] was tested. Which inhibition at 1 µM did it give?
Answer: 97%

Question: `CC(C)OCCOc1ccc(-c2ccc3c(c2)C=C(C(=O)Nc2ccc(CN(C)C4CCOCC4)cc2)CCS3(=O)=O)cc1` [Compound 111, 7-[4-(2-isopropoxyethoxy)phenyl]-N-[4-[[N-methyl-N-(tetrahydropyran-4-yl)amino]methyl]phenyl]-1,1-dioxo-2,3-dihydro-1-benzothiepine-4-carboxamide] was tested. Which inhibition at 1 µM did it give?
Answer: 95%

Question: For `CCOCCCc1ccc(-c2ccc3c(c2)C=C(C(=O)Nc2ccc(CN(C)C4CCOCC4)cc2)CCS3(=O)=O)cc1` [Compound 123, 7-[4-(3-ethoxypropyl)phenyl]-N-[4-[[N-methyl-N-(tetrahydro-2H-pyran-4-yl)amino]methyl]phenyl]-1,1-dioxo-2,3-dihydro-1-benzothiepine-4-carboxamide], which inhibition at 1 µM is on record?
Answer: 94%
